These results are taken from patent publication US8962001B2, “Nuclease inhibitors and methods for their use” (Wisconsin Alumni Research Foundation, priority 2004, dated 2015).

One assay deals with T1, ribonuclease A (Bos taurus, UniProt P61823).
T1 construct: made in house
T1 sequence (P61823 27-150): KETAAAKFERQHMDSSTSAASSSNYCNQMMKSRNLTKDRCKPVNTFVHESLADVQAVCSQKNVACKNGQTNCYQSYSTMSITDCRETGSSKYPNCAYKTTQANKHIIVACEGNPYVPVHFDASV
As to the kind of experiment: Inhibition of RNase A catalysis, fluorescence assay with 6-FAM~dArUdAdA~6-TAMRA. The format is biochemical. As to conditions: solutions of low salt concentration. The procedure:
Inhibition of RNase A Catalysis—Inhibition of ribonucleolytic activity was measured by using either poly(C) or a fluorogenic substrate. The total cytidyl concentration of poly(C) was quantitated using ε=6,200 M^−1 cm^−1 at 268 nm (Yakovlev et al., 1992). The cleavage of poly(C) was monitored by the decrease in ultraviolet hypochromicity. The Δε value for this reaction calculated from the difference in molar absorptivity of the polymeric substrate and the mononucleotide cyclic phosphate product was 2,380 M^−1 cm^−1 at 250 nm (delCardayre and Raines, 1994). Assays were performed at 25° C. in 50 mM imidazole-HCl buffer, pH 6.0, containing NaCl (0.10 M), poly(C) (10 μM-1.5 mM), OVS (0-1.43 μM), and enzyme (1.0 nM).
Molar values of OVS were calculated by using the number average molecular mass (Mn) of 2,000 g/mol (value provided by the manufacturer and said to be measured by GPC, Polysciences.) It is possible that an oligomer of this size could bind two enzymes. Thus, the actual Ki values could be 2-fold higher. Kinetic parameters were determined from initial velocity data with the program DELTA-GRAPH 4.0 (DeltaPoint, Monterey, Calif.). For the fluorescence assay, the inhibition of ribonucleolytic activity was assessed at 25° C. in 2.0 ml of 50 mM imidazole-HCl buffer, pH 6.0, containing NaCl (0-0.25 M), 6-FAM˜dArUdAdA˜6-TAMRA (60 nM), and RNase A ([…]) as described previously (Kelemen et al., 1999; Park et al., 2001). Fluorescence (F) was measured using 493 and 515 nm as the excitation and emission wavelengths, respectively. The value of ΔF/Δt was measured for 3 min after the addition of RNase A. An aliquot of inhibitor (I) dissolved in the dissolved in the assay buffer was added next, and ΔF/Δt was measured in the presence of the inhibitor for 3 min. The concentration of inhibitor in the assay was doubled repeatedly in 3-min intervals. Excess RNase A was then added to the mixture to ensure that […] substrate had been cleaved prior to completion of the inhibition assay. Apparent changes in ribonucleolytic activity due to dilution were corrected by comparing values to an assay in which aliquots of buffer were added to the assay. Values of Ki were determined by non-linear least squares regression analysis of data fitted to Equation 1 (Kelemen et al., 1999; Park et al., 2001). ΔF/Δt=(ΔF/Δt)0(Ki/(Ki+[I])) (Eq. 1)
At 0 M NaCl, the enzyme concentration ([E] total) caused a significant depletion in inhibitor concentration, thus the data were fitted to Equation 2, which describes tight-binding inhibition (Henderson, 1972). ΔF/Δt=((ΔF/Δt)0/2[E]total){[(Ki+[I]−[E]total]^2+4Ki[E]total)^1/2−(Ki+[I]−[E]total)} (Eq. 2) In Equations 1 and 2, ( )F/ )t)0 was the ribonucleolytic activity prior to inhibitor addition.

The next assay deals with T2, RNase A (Bos taurus, UniProt P61823).
T2 sequence (P61823 27-150): T1 sequence (P61823 27-150)
As to conditions: similar buffer conditions with 0.10 M NaCl; cited from earlier work.

For `O=S(=O)(O)CCO` [2-hydroxyethanesulfonic acid], the “inhibition of RNase A by buffer synthesis byproducts (words)” value (from here on “inhibition”) on ribonuclease A is listed as “Neither of these species was found to be a potent inhibitor”; on ribonuclease A (listed as 2-OH ethanesulfonic acid), “None of these three materials was found, when tested, to exhibit inhibitory activity”. With `O=S(=O)(O)CCOCCS(=O)(=O)O` [Diethanesulfonic acid ether, diethanesulfonic acid ether], the “inhibition” value on ribonuclease A is “failed to inhibit RNase A”; at ribonuclease A (listed as diethanesulfonic acid) it was “None of these three materials was found, when tested, to exhibit inhibitory activity”. The Ki is a measure of affinity in units of concentration, obtained from inhibition or displacement. In the case of `Nc1ncnc2c1ncn2[C@@H]1O[C@H](COP(=O)(O)OP(=O)(O)O[C@H]2C[C@H](n3ccc(=O)[nH]c3=O)O[C@@H]2COP(=O)(O)O)[C@@H](OP(=O)(O)O)[C@H]1O` [pdUppA-3′-p], at RNase A, the Ki is around 120 nM. For the compound `C=CS(=O)(=O)O` [vinylsulfonic acid], the “inhibition” value on ribonuclease A is recorded as “Neither of these species was found to be a potent inhibitor”; on ribonuclease A (listed as vinyl sulfonic acid), “None of these three materials was found, when tested, to exhibit inhibitory activity”.
